In brackets after ≈: the same amount, converted by molar mass. Several values for one entry are separate records, joined by “and”; a condition that tells them apart may be missing. Equal values may be shown once. Read-outs that look alike come from different tables or passages of the source.
Tests used:
[1] = system: Mycobacterium tuberculosis H37Rv; assay: Mycobacterium tuberculosis H37Rv Inhibition Assay (Whole Cell Assay); assay type: cell-based; settings: ATCC 25618 / H37Rv, H37Rv strain (ATCC25618), Middlebrook 7H9, six days at 37° C., resazurin fluorescence after 48 hours
[2] = biological target: T1, InhA (Mycobacterium tuberculosis, UniProt P9WGR1); assay: Mycobacterium tuberculosis InhA Inhibition Assay (Enzyme Assay); assay type: biochemical; settings: 5 nM InhA, 50 μM DDCoA, 50 μM NADH, PIPES buffer pH 6.8, initial velocities of NADH consumption
T1 construct: made in house; host or cells: E. coli
Experimental: InhA is able to reduce 2-trans enoyl-CoA esters with concomitant oxidation of NADH to NAD^+. The assay format is based on the kinetic detection of NADH consumption.
Assay for InhA inhibition is carried out with mycobacterium recombinant protein expressed and purified form E. coli. Standard assay conditions for the determination of kinetic constants and inhibitors activity use 5 nM of InhA, 50 μM of Dodecenoyl-CoA synthesized and purified as described by Quémard et al (DDCoA) and 50 μM of NADH as substrates, and it is carried out in 30 mM PIPES buffer pH 6.8, containing 0.05% of BSA. […] Triclosan is used as positive control in every experiment. One μl of compounds is added to the wells containing 25 μl of the DDCoA+NADH mix, the reaction is started by adding 50 μl of the enzyme solution. Fluorescence from NADH is followed at room temperature during 20 minutes in a fluorescent plate reader (excitation at 340 nm; emission at 480 nm). IC50 values are determined using initial velocities of NADH consumption. • Quémard A, Sacchettini J C, Dessen A, et al. Enzymatic characterization of the target for isoniazid in Mycobacterium tuberculosis. Biochemistry 1995; 34:8235-41. Results of the Mycobacterium tuberculosis InhA Inhibition Assay (Enzyme Assay)

T1 sequence (P9WGR1 whole entry, looked up): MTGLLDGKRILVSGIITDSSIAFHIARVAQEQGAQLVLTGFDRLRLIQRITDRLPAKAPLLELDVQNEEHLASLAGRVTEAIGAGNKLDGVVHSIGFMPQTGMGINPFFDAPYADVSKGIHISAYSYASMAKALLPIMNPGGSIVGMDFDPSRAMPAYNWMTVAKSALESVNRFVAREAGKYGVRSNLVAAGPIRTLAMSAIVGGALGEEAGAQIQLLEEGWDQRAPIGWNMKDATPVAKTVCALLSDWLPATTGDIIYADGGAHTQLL

Cc1ccn(C(C)c2nnc(Nc3ccn(Cc4csc(C)n4)n3)s2)n1 (centres unmarked) [Example 23, 5-[1-(3-methyl-1H-pyrazol-1-yl)ethyl]-N-{1-[(2-methyl-1,3-thiazol-4-yl)methyl]-1H-pyrazol-3-yl}-1,3,4-thiadiazol-2-amine]
MIC [1]: 4 to 10 µM (≈ 1.55 to 3.87 µg/mL) | IC50 ([2]; read-out: IC50 value): 129 to 259 nM

Cc1ccn(C(C)c2nnc(Nc3nn(Cc4csc(C)n4)c4ccccc34)s2)n1 (centres unmarked) [Example 46, N-{5-[1-(3-methyl-1H-pyrazol-1-yl)ethyl]-1,3,4-thiadiazol-2-yl}-1-[(2-methyl-1,3-thiazol-4-yl)methyl]-1H-indazol-3-amine]
MIC [1]: > 10 µM | IC50 ([2]; IC50 value): > 1150 nM

Cc1ccn([C@@H](C)c2nnc(Nc3ccn(Cc4ncccc4F)n3)s2)n1 (single isomer, unassigned) [Example 40]
MIC [1]: ≤ 4 µM | IC50 ([2]; IC50 value): ≤ 130 nM

Cc1csc(C(C)(O)c2nnc(Nc3ccn(Cc4nccc(C)c4F)n3)s2)n1 (centres unmarked) [Example 37, 1-[5-({1-[(3-fluoro-4-methyl-2-pyridinyl)methyl]-1H-pyrazol-3-yl}amino)-1,3,4-thiadiazol-2-yl]-1-(4-methyl-1,3-thiazol-2-yl)ethanol]
MIC [1]: ≤ 4 µM | IC50 ([2]; read-out: IC50 value): ≤ 116 nM

Cc1csc([C@@](C)(O)c2nnc(Nc3ccn(Cc4ncccc4F)n3)s2)n1 (single isomer, unassigned) [Example 42]
MIC [1]: > 10 µM | IC50 ([2]; IC50 value): 240 to 1200 nM

Cc1csc(C(C)(O)c2nnc(Nc3ccn(Cc4cccc5cccnc45)n3)s2)n1 (centres unmarked) [Example 20, 1-(4-methyl-1,3-thiazol-2-yl)-1-(5-{[1-(8-quinolinylmethyl)-1H-pyrazol-3-yl]amino}-1,3,4-thiadiazol-2-yl)ethanol]
MIC [1]: ≤ 4 µM | IC50 ([2]; read-out: IC50 value): ≤ 111 nM

Cc1csc(C(C)c2nnc(Nc3ccn(Cc4ncccc4F)n3)s2)n1 (centres unmarked) [Example 34, N-{1-[(3-fluoro-2-pyridinyl)methyl]-1H-pyrazol-3-yl}-5-[1-(4-methyl-1,3-thiazol-2-yl)ethyl]-1,3,4-thiadiazol-2-amine]
MIC [1]: ≤ 4 µM | IC50 ([2]; read-out: IC50 value): ≤ 125 nM

Cc1cc(C)n(C(C)c2nnc(Nc3ccn(Cc4cccnc4)n3)s2)n1 (centres unmarked) [Example 4, 5-[1-(3,5-dimethyl-1H-pyrazol-1-yl)ethyl]-N-[1-(3-pyridinylmethyl)-1H-pyrazol-3-yl]-1,3,4-thiadiazol-2-amine]
MIC [1]: > 10 µM | IC50 ([2]; read-out: IC50 value): ≤ 131 nM

Cc1csc([C@](C)(O)c2nnc(Nc3ccn(Cc4csc(C)n4)n3)s2)n1 (single isomer, unassigned) [Example 43]
IC50 ([2]; IC50 value): ≤ 119 nM

Cc1csc(C(C)(O)c2nnc(Nc3ccn(Cc4ncccc4O)n3)s2)n1 (centres unmarked) [Example 16, 2-{[3-({5-[1-hydroxy-1-(4-methyl-1,3-thiazol-2-yl)ethyl]-1,3,4-thiadiazol-2-yl}amino)-1H-pyrazol-1-yl]methyl}-3-pyridinol]
MIC [1]: > 10 µM

COc1c(C)cnc(Cn2ccc(Nc3nnc(C(C)(O)c4nc(C)cs4)s3)n2)c1C (centres unmarked) [Example 31, 1-{5-[(1-{[3,5-dimethyl-4-(methyloxy)-2-pyridinyl]methyl}-1H-pyrazol-3-yl)amino]-1,3,4-thiadiazol-2-yl}-1-(4-methyl-1,3-thiazol-2-yl)ethanol]
MIC [1]: > 10 µM | IC50 ([2]; IC50 value): 219 to 1090 nM

Cc1cccc(Cn2ccc(Nc3nnc(C(C)n4nc(C)cc4C)s3)n2)n1 (centres unmarked) [Example 1, 5-[1-(3,5-dimethyl-1H-pyrazol-1-yl)ethyl]-N-{1-[(6-methyl-2-pyridinyl)methyl]-1H-pyrazol-3-yl}-1,3,4-thiadiazol-2-amine]
MIC [1]: > 10 µM | IC50 ([2]; read-out: IC50 value): ≤ 127 nM

Cc1csc(C(C)(O)c2nnc(Nc3ccn(Cc4cnn(C)c4)n3)s2)n1 (centres unmarked) [Example 25, 1-[5-({1-[(1-methyl-1H-pyrazol-4-yl)methyl]-1H-pyrazol-3-yl}amino)-1,3,4-thiadiazol-2-yl]-1-(4-methyl-1,3-thiazol-2-yl)ethanol]
MIC [1]: > 10 µM | IC50 ([2]; IC50 value): 248 to 1240 nM

Cc1csc(C(C)(O)c2nnc(Nc3nn(Cc4csc(C)n4)c4ccccc34)s2)n1 (centres unmarked) [Example 45, 1-(4-methyl-1,3-thiazol-2-yl)-1-[5-({1-[(2-methyl-1,3-thiazol-4-yl)methyl]-1H-indazol-3-yl}amino)-1,3,4-thiadiazol-2-yl]ethanol]
MIC [1]: > 10 µM | IC50 ([2]; IC50 value): 213 to 1060 nM

Cc1csc(C(C)(O)c2nnc(Nc3ccn(Cc4cn5ccccc5n4)n3)s2)n1 (centres unmarked) [Example 24, 1-(5-{[1-(imidazo[1,2-a]pyridin-2-ylmethyl)-1H-pyrazol-3-yl]amino}-1,3,4-thiadiazol-2-yl)-1-(4-methyl-1,3-thiazol-2-yl)ethanol]
MIC [1]: 4 to 10 µM (≈ 1.75 to 4.39 µg/mL) | IC50 ([2]; read-out: IC50 value): 114 to 228 nM

Cc1csc(C(C)(O)c2nnc(Nc3ccn(Cc4cccc(F)n4)n3)s2)n1 (centres unmarked) [Example 18, 1-[5-({1-[(6-fluoro-2-pyridinyl)methyl]-1H-pyrazol-3-yl}amino)-1,3,4-thiadiazol-2-yl]-1-(4-methyl-1,3-thiazol-2-yl)ethanol]
MIC [1]: ≤ 1 µM | IC50 ([2]; read-out: IC50 value): ≤ 120 nM

Cc1csc(C(C)(O)c2nnc(Nc3ccn(Cc4c(F)cncc4F)n3)s2)n1 (centres unmarked) [Example 32, 1-[5-({1-[(3,5-difluoro-4-pyridinyl)methyl]-1H-pyrazol-3-yl}amino)-1,3,4-thiadiazol-2-yl]-1-(4-methyl-1,3-thiazol-2-yl)ethanol]
MIC [1]: > 10 µM | IC50 ([2]; IC50 value): > 1150 nM

Cc1ccn(C(C)c2nnc(Nc3ccn(Cc4c(C)noc4C)n3)s2)n1 (centres unmarked) [Example 27, N-{1-[(3,5-dimethyl-4-isoxazolyl)methyl]-1H-pyrazol-3-yl}-5-[1-(3-methyl-1H-pyrazol-1-yl)ethyl]-1,3,4-thiadiazol-2-amine]
MIC [1]: > 10 µM | IC50 ([2]; IC50 value): > 1300 nM

Cc1csc([C@@](C)(O)c2nnc(Nc3ccn(Cc4csc(C)n4)n3)s2)n1 (single isomer, unassigned) [Example 44]
MIC [1]: > 10 µM | IC50 ([2]; IC50 value): 238 to 1190 nM

Cc1csc(C(C)(O)c2nnc(Nc3ccn(Cc4csc(C)n4)n3)s2)n1 (racemic) [Example 21, 1-(4-methyl-1,3-thiazol-2-yl)-1-[5-({1-[(2-methyl-1,3-thiazol-4-yl)methyl]-1H-pyrazol-3-yl}amino)-1,3,4-thiadiazol-2-yl]ethanol]
MIC [1]: ≤ 1 µM | IC50 ([2]; read-out: IC50 value): ≤ 119 nM

Cc1cc(C)n(C(C)c2nnc(Nc3ccn(Cc4ccccn4)n3)s2)n1 (centres unmarked) [Example 5, 5-[1-(3,5-dimethyl-1H-pyrazol-1-yl)ethyl]-N-[1-(2-pyridinylmethyl)-1H-pyrazol-3-yl]-1,3,4-thiadiazol-2-amine]
MIC [1]: > 10 µM | IC50 ([2]; IC50 value): 263 to 1310 nM

CCc1csc(C(C)(O)c2nnc(Nc3ccn(Cc4csc(C)n4)n3)s2)n1 (centres unmarked) [Example 47, 1-(4-ethylthiazol-2-yl)-1-(5-((1-((2-methylthiazol-4-yl)methyl)-1H-pyrazol-3-yl)amino)-1,3,4-thiadiazol-2-yl)ethanol]
MIC [1]: ≤ 1 µM | IC50 ([2]; IC50 value): ≤ 115 nM

CCOc1ncccc1Cn1ccc(Nc2nnc(C(C)n3nc(C)cc3C)s2)n1 (centres unmarked) [Example 11, 5-[1-(3,5-dimethyl-1H-pyrazol-1-yl)ethyl]-N-(1-{[2-(ethyloxy)-3-pyridinyl]methyl}-1H-pyrazol-3-yl)-1,3,4-thiadiazol-2-amine]
MIC [1]: > 10 µM | IC50 ([2]; IC50 value): > 1180 nM

Cc1ccn(C(C)c2nnc(Nc3cc(C)n(Cc4ncccc4F)n3)s2)n1 (centres unmarked) [Example 29, N-{1-[(3-fluoro-2-pyridinyl)methyl]-5-methyl-1H-pyrazol-3-yl}-5-[1-(3-methyl-1H-pyrazol-1-yl)ethyl]-1,3,4-thiadiazol-2-amine]
MIC [1]: ≤ 4 µM | IC50 ([2]; IC50 value): ≤ 125 nM

Cc1ccn(C(C)c2nnc(Nc3ccn(Cc4nccc(C)c4F)n3)s2)n1 (centres unmarked) [Example 3, N-{1-[(3-fluoro-4-methyl-2-pyridinyl)methyl]-1H-pyrazol-3-yl}-5-[1-(3-methyl-1H-pyrazol-1-yl)ethyl]-1,3,4-thiadiazol-2-amine]
MIC [1]: > 10 µM | IC50 ([2]; read-out: IC50 value): ≤ 125 nM

Cc1csc(C(C)(O)c2nnc(Nc3ccn(Cc4ncccc4C)n3)s2)n1 (centres unmarked) [Example 14, 1-[5-({1-[(3-methyl-2-pyridinyl)methyl]-1H-pyrazol-3-yl}amino)-1,3,4-thiadiazol-2-yl]-1-(4-methyl-1,3-thiazol-2-yl)ethanol]
MIC [1]: ≤ 1 µM | IC50 ([2]; IC50 value): ≤ 121 nM and 9.67 nM

Cc1csc(C(C)(O)c2nnc(Nc3ccn(Cc4cc(C)on4)n3)s2)n1 (centres unmarked) [Example 22, 1-[5-({1-[(5-methyl-3-isoxazolyl)methyl]-1H-pyrazol-3-yl}amino)-1,3,4-thiadiazol-2-yl]-1-(4-methyl-1,3-thiazol-2-yl)ethanol]
MIC [1]: 4 to 10 µM (≈ 1.61 to 4.03 µg/mL) | IC50 ([2]; read-out: IC50 value): 124 to 248 nM

Cc1csc(C(C)(O)c2nnc(Nc3ccn(Cc4csc(N)n4)n3)s2)n1 (centres unmarked) [Example 17, 1-[5-({1-[(2-amino-1,3-thiazol-4-yl)methyl]-1H-pyrazol-3-yl}amino)-1,3,4-thiadiazol-2-yl]-1-(4-methyl-1,3-thiazol-2-yl)ethanol]
MIC [1]: > 10 µM | IC50 ([2]; IC50 value): 238 to 1190 nM

Cc1csc(C(C)(O)c2nnc(Nc3ccn(Cc4[nH]ccc(=O)c4F)n3)s2)n1 (centres unmarked) [Example 33, 3-fluoro-2-{[3-({5-[1-hydroxy-1-(4-methyl-1,3-thiazol-2-yl)ethyl]-1,3,4-thiadiazol-2-yl}amino)-1H-pyrazol-1-yl]methyl}-4(1H)-pyridinone]
MIC [1]: > 10 µM | IC50 ([2]; IC50 value): > 1150 nM
